Assay results: ChEMBL document CHEMBL3352172, “Discovery of S-adenosyl-L-homocysteine hydrolase inhibitors based on non-adenosine analogs” (Bioorg Med Chem Lett, 2014)

Each molecule was assayed against Adenosylhomocysteinase (Homo sapiens, UniProt P23526) (assay: Inhibition of human recombinant S-adenosyl-L-homocysteine hydrolase assessed as AdoHcy hydrolysis activity by HPLC analysis).
Sequence of Adenosylhomocysteinase (P23526 whole entry): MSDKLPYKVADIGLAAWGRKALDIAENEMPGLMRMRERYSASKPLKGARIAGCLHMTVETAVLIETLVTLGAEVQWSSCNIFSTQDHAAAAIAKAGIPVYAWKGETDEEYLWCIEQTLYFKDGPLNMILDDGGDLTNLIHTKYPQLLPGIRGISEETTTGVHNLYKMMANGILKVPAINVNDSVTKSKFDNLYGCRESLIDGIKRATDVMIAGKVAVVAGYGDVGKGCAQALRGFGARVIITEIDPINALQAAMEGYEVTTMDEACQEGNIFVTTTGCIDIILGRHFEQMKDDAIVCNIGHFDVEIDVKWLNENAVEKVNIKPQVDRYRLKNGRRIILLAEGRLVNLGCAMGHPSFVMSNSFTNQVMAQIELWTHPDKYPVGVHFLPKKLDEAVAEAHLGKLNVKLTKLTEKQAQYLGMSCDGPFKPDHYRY
For O=C(CN(CC(=O)NC1Cc2ccccc2C1)c1cc(Cl)ccc1Oc1ccc(Cl)cc1)NCCN1CCCC1, the IC50 was 11.4 µM.
CN(C(=O)CN(CC(=O)NC1CCCNC1)c1cc(Cl)ccc1Oc1ccc(Cl)cc1)C1Cc2ccccc2C1 (configuration not stated) showed an IC50 of 1.2 µM.
With O=C(CN(CC(=O)N1CCc2ccccc2C1)c1cc(Cl)ccc1Oc1ccc(Cl)cc1)NCCN1CCCC1 the IC50 was 17 µM.
In the case of CN(C(=O)CN(CC(=O)NCCN1CCCC1)c1cc(Cl)ccc1Oc1ccc(Cl)cc1)C1CCNCC1, the IC50 is reported as over 100 µM.
O=C(CN(CC(=O)N1CCC(c2ccccc2)CC1)c1cc(Cl)ccc1Oc1ccc(Cl)cc1)NCCN1CCCC1 showed an IC50 of 0.97 µM.
O=C(CN(CC(=O)N1Cc2ccccc2C1)c1cc(Cl)ccc1Oc1ccc(Cl)cc1)NCCN1CCCC1 was tested, and the IC50 was over 100 µM.
CN(C(=O)CN(CC(=O)NC1CCNC1)c1cc(Cl)ccc1Oc1ccc(Cl)cc1)C1Cc2ccccc2C1 (configuration not stated) gave an IC50 of 1.5 µM.
